pIC50: −log10 of the molar value. Read-outs that look alike come from different tables or passages of the source. No end group written: not given here.
How the values were obtained:
HLA-A*2902 = HLA-A*2902 (Homo sapiens, UniProt P04439, A270S/D101N/D185E/E176V/E277Q/E87Q/F33T/G231S/H175R/I121M/I218V/I322F/K168Q/L300P/L318F/M331R/P208A/P217A/Q86L/T323A/T345S/V100A/V358M); test: MHC molecular binding / Capture assay, IC50: A*2902
HLA-A*3002 = HLA-A*3002 (Homo sapiens, UniProt P04439, D101N/D140H/D185E/E176R/F33S/G80R/H175R/K168Q/Q94H/R138E/R41S/V100E); test: biochemical; type: binding
HLA-DR DRB1*0405 (DR4) = HLA-DR DRB1*0405 (DR4) (Homo sapiens, UniProt P01903+P01911, A100R/A169T/D86S/F76Y/I96L/K127E/L162R/M171V/N62H/P40V/Q125Y/R42H/S133A/S149N/S66Y/V115G/V209L/W38E); test: biochemical; type: binding; settings: DRB1 *0405
HLA-DR DRB1*0101 (DR1) = HLA-DR DRB1*0101 (DR1) (Homo sapiens, UniProt P01903+P01911, A100R/D57E/F55L/F60I/F76Y/I96L/L162R/M171V/P40L/Q125E/R42F/V115G/Y59C); test: biochemical; type: binding; settings: DRB1 *0101
HLA-DR DRB1*1302 (DR13) = HLA-DR DRB1*1302 (DR13) (Homo sapiens, UniProt P01903+P01911, A100E/A169T/K41T/L162R/M171V/P40S/Q125H/Q178H/Q39Y/Q99D/R42S/S66N/T262R/V115G/W38E/Y61H); test: biochemical; type: binding; settings: DRBI *1302
HLA-DR DRB4*0101 (DR53) = HLA-DR DRB4*0101 (DR53) (Homo sapiens, UniProt P01903+P13762, G164S); test: biochemical; type: binding; settings: DRB4 *0101
HLA-DR DRB1*0301 (DR3) = HLA-DR DRB1*0301 (DR3) (Homo sapiens, UniProt P01903+P01911, A100K/A102G/A103R/A169T/F55Y/I96L/K41T/L162R/M171V/P40S/Q125H/Q178H/Q39Y/R42S/S66N/T106N/T262R/W38E/Y61H); test: biochemical; type: binding
HLA-DR DRB1*1101 (DR11) = HLA-DR DRB1*1101 (DR11) (Homo sapiens, UniProt P01903+P01911, A100R/A169T/A87E/I96F/K41T/L162R/M171V/P40S/Q125H/Q178H/Q39Y/Q99D/R42S/S66Y/T262R/V115G/W38E); test: biochemical; type: binding; settings: DRB1 *1101
HLA-DR DRB1*0401 (DR4) = HLA-DR DRB1*0401 (DR4) (Homo sapiens, UniProt P01903+P01911, A100K/A169T/F76Y/I96L/K127E/L162R/M171V/N62H/P40V/Q125Y/R42H/S133A/S149N/S66Y/V115G/V209L/W38E); test: biochemical; type: binding; settings: DRB1 *0401
HLA-DR DRB5*0101 (DR51) = HLA-DR DRB5*0101 (DR51) (Homo sapiens, UniProt P01903+Q30154); test: biochemical; type: binding; settings: DRB5 *0101
HLA-DR DRB1*1501 (DR15) = HLA-DR DRB1*1501 (DR15) (Homo sapiens, UniProt P01903+P01911); test: biochemical; type: binding; settings: DRBI *1501
HLA-DR DRB3*0101 (DR52) = HLA-DR DRB3*0101 (DR52) (Homo sapiens, UniProt P01903+P79483); test: biochemical; type: binding
HLA-DR DRB1*0701 (DR7) = HLA-DR DRB1*0701 (DR7) (Homo sapiens, UniProt P01903+P01911, A100R/A102G/A103Q/D57E/D86V/E43K/F76Y/K127E/L162R/M171V/P40G/Q125H/Q99D/R33Q/R42Y/R54Q/S133A/S66F/T210M/V115G/Y107V/Y59L/Y89S); test: biochemical; type: binding; settings: DRB1 *0701
HLA-DR DRB1*0901 (DR9) = HLA-DR DRB1*0901 (DR9) (Homo sapiens, UniProt P01903+P01911, A100R/A103E/D57H/D86V/F55Y/F60I/F76Y/I96F/K127E/L162R/M171V/P40D/Q125H/Q99R/R33Q/R42F/S133A/S66N/T210M/V115G/W38K/Y107V/Y59G/Y89S); test: biochemical; type: binding; settings: DRB1 *0901
HLA-DR DRB1*0802 (DR8) = HLA-DR DRB1*0802 (DR8) (Homo sapiens, UniProt P01903+P01911, A100R/A103L/A169T/F76Y/H45Y/I96F/K41T/L162R/M171V/P40S/Q125H/Q178H/Q39Y/Q99D/R218S/R42G/S66Y/V115G/W38E); test: biochemical; type: binding
[1] = Binding affinity to A*2902 (expressed as an IC50)
[2] = Binding affinity to A*3002 (expressed as an IC50)

HLA-DR DRB1*0301 (DR3), sequence (P01903 26-254 limits assumed, other chains not shown): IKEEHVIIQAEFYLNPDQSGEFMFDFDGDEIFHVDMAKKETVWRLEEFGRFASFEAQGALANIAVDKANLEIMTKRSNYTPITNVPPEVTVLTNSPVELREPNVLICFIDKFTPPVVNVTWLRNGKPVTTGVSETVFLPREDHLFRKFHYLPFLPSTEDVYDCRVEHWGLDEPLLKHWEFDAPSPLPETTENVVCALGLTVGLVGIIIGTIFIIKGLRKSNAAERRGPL
HLA-DR DRB1*1101 (DR11), sequence (P01903 26-254 limits assumed, other chains not shown): as above
HLA-DR DRB1*1302 (DR13), sequence (P01903 26-254 limits assumed, other chains not shown): as above
HLA-A*3002, sequence (P04439 whole entry, looked up, the tested form may be a part, stated change not applied): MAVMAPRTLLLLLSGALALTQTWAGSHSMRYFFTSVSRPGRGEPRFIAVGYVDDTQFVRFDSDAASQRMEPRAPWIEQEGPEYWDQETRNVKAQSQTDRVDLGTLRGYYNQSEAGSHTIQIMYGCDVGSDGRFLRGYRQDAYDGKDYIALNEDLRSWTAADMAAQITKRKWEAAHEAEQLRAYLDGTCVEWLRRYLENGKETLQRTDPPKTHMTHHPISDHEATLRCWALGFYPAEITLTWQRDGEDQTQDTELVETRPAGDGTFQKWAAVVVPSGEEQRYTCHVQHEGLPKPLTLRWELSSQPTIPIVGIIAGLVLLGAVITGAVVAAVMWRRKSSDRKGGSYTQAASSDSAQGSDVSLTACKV

Compound	pIC50 (HLA-A*2902; [1])	pIC50 (HLA-A*3002; [2])	pIC50 (HLA-DR DRB1*0405 (DR4))	pIC50 (HLA-DR DRB1*0101 (DR1))	pIC50 (HLA-DR DRB1*1302 (DR13))	pIC50 (HLA-DR DRB4*0101 (DR53))	pIC50 (HLA-DR DRB1*0301 (DR3))	pIC50 (HLA-DR DRB1*1101 (DR11))	pIC50 (HLA-DR DRB1*0401 (DR4))	pIC50 (HLA-DR DRB5*0101 (DR51))	pIC50 (HLA-DR DRB1*1501 (DR15))	pIC50 (HLA-DR DRB3*0101 (DR52))	pIC50 (HLA-DR DRB1*0701 (DR7))	pIC50 (HLA-DR DRB1*0901 (DR9))	pIC50 (HLA-DR DRB1*0802 (DR8))	further results
YYNNFNNNY	7.72	7.47														
VTGERGFFYTPKTRR			4.87	4.72	4.60	< 4.53	5.52	4.99	5.14	6.27	5.55	3.61	4.56	< 3.52	5.03	
KYQAVTTTL																pIC50 (HLA-A*2902; A*2902 binding affinity (IC50)): < 3.81
CC[C@H](C)[C@H](NC(=O)[C@H](CCC(=O)O)NC(=O)[C@H](CC(C)C)NC(=O)[C@H](C)NC(=O)[C@H](CO)NC(=O)[C@H](CO)NC(=O)[C@H](CC(C)C)NC(=O)[C@@H](N)CCC(=O)O)C(=O)N1CCC[C@H]1C(=O)N[C@@H](Cc1ccc(O)cc1)C(=O)O	5.22	5.35														
KTYGGPGPGY	6.64	8.77														
FVSSIFISFY	7.66	7.08														
QAAESNERY	4.61	5.52														
YLVCGERGFLYTPKT			< 4.52	6.81	5.67	4.48	5.69	< 2.95	< 4.69	6.01	< 4.59	< 4.02	4.89	6.91	< 4.26	
ELEASISGKY	4.66															
VCGERGFFYTPKTRR			< 4.82	5.02	4.46	< 4.51	5.70	5.42	< 4.69	7.04	< 4.59	4.76	5.26	4.84	6.38	
SDSNIYDLLKDLEEG			6.86	< 4.75	< 4.79	4.62	3.90	< 4.81	4.76	< 5.02	< 4.06	< 4.73	< 4.07	4.30	< 4.48	
ALLKNYGLLYTFRKD			6.52	7.72	9.05	5.87	5.22	5.76	6.80	7.54	8.19	7.30	5.23	5.58	5.44	
TYGWCFKL																pIC50 (HLA-A*2902): 4.59; pIC50 (HLA-A*3002): < 5.09
CYSLYGTTF																pIC50 (HLA-A*3002): 5.11
CC(C)C[C@H](NC(=O)[C@H](C)NC(=O)[C@H](CO)NC(=O)[C@H](C)NC(=O)[C@@H](NC(=O)[C@H](CC(=O)O)NC(=O)[C@H](CC(C)C)NC(=O)[C@H](CC(C)C)NC(=O)[C@@H](N)CC(=O)O)[C@@H](C)O)C(=O)N[C@@H](Cc1ccc(O)cc1)C(=O)O	7.13															
